Entries after “also recorded” stand apart in the source; their conditions may differ.

The first assay concerns reporter gene with premature stop codon (TGA) in COS-7 cells. The experiment in a line: In vitro read-through activity, COS-7 cells transfected with β-galactosidase/luciferase reporter gene. It is filed as cell-based, African green monkey. To be noted: COS-7, TGA reporter, compared with negamycin. The method, then:
African green monkey SV40-transformed kidney fibroblast cell line (COS-7) was sown in 100×20 mm cell culture dishes manufactured by Falcon and cultured at 37° C. in 5% CO2. Fifty milliliters of fetal bovine serum (FBS) was added to 500 mL of D-MEM (containing high glucose, L-glutamine, and phenol red) manufactured by Wako Pure Chemical Industries Ltd., and culture broth prepared to adjust to 10% FBS was used as the culture broth. (Referred to hereinafter as culture broth.)
The Reporter Lysis Buffer 5×, assay 2× buffer, 1 M Na2CO3, and standard used in creation of the calibration curve referred to hereinafter are included in the β-Galactosidase Enzyme Assay System with Reporter Lysis Buffer manufactured by Promega.
COS-7 cells (8.0×10^3 cells/well) were seeded by continuous dispensing of 100 μL each into flat-bottom 96-well plates (Costar (registered trade mark) 3596) manufactured by Corning and incubated for 15-16 hours at 37° C.
A quantity of 4 μL/well of DNA solution prepared in a ratio of 1.32 μL (2 μg) of reporter gene (a construct obtained by linking a β-galactosidase gene and a luciferase gene and inserting a premature stop codon (TGA) at their juncture), 100 μL of OPTI-MEM (registered trade mark) I (Reduced Serum Medium 1×) manufactured by Invitrogen, and 4 μL of FuGENE (registered trade mark) HD Transfection Reagent manufactured by Roche was added to the solution and incubated for 10-11 hours at 37° C.
The entire culture broth was aspirated, and the compound to be evaluated was prepared to adjust to 200 μM by culture broth and added by continuously dispensing 200 μL/well. 100 μM and 50 μM were also prepared in the same way and added by continuously dispensing 200 μL each. Incubation was carried out for 48 hours at 37° C. after addition.
After 48 hours had elapsed, the entire culture broth in the well was aspirated and washed twice with PBS. The Reporter Lysis Buffer 5× was then diluted by MilliQ, and a solution prepared to adjust to Reporter Lysis Buffer l× was added by continuously dispensing 100 μL each and allowed to stand for 15 minutes at room temperature. The contents of each well were recovered thereafter, and the entire amount was transferred to Nunc microwell plates (V bottom) manufactured by Thermo Fisher Scientific and centrifuged (1800 rpm, 15 minutes). Eighty-five microliters of this lysate was transferred to Nunc low-binding 96-well plates (flat bottom) clear manufactured by Thermo Fisher Scientific.
Using Nunc low-binding 96-well plates (flat bottom) clear manufactured by Thermo Fisher Scientific, 30 μL/well of Reporter Lysis Buffer l× was added by dispensing continuously, followed by addition of 20 μL of the recovered lysate to make 50 μL. Separately, the standard required for creation of a calibration curve was added to make 0, 1, 2, 3, 4, and 5 mU according to the protocol of the β-Galactosidase Enzyme Assay System with Reporter Lysis Buffer manufactured by Promega. A quantity of 50 μL of Assay 2× buffer was added to each of these wells and incubated for 25 minutes at room temperature. A quantity of 150 μL/well of 1M Na2CO3, a reaction-stopping solution, was added, and the […] (420 nm, reference […]) was measured immediately using an absorption/fluorescence microplate reader Tecan Safire manufactured by Tecan. A calibration curve was created from the absorbance of the standard, and the absorbance converted to mU according to this calibration curve was taken as the activity value.
A quantity of 50 μL/well of the recovered lysate was added to 96-well white plates (Costar (registered trade mark) 3912) manufactured by Corning and incubated for five minutes at room temperature after adding 100 μL of PicaGene (registered trade mark) manufactured by Toyo Ink Co., Ltd. After five minutes, the emission intensity was measured by a Berthold luminometer MicroLumat Plus LB96V manufactured by Berthold Japan. […]
A general note: In a reporter assay the amount or activity of a reporter protein is the signal.
In the case of `CN(CC(=O)O)NC(=O)C[C@@H](N)CCCN` [Example Compound 2, (S)-2-(2-(3,6-diaminohexanoyl)-1-methylhydrazinyl)acetic acid], the “read-through activity / read-through efficiency (FIG. 1-3, in words)” value is listed as “remarkably high read-through efficiency in comparison even to negamycin”. Take `CN(CC(=O)O)NC(=O)C[C@@H](N)CCN` [Example Compound 3, (S)-2-(2-(3,5-diaminopentanoyl)-1-methylhydrazinyl)acetic acid]: the “read-through activity / read-through efficiency (FIG. 1-3, in words)” value is recorded as “remarkably high read-through efficiency in comparison even to negamycin; also recorded: read-through efficiency equal to or greater than that of negamycin”. In the case of `CCOC(=O)CN(C)NC(=O)C[C@@H](N)CCCN` [Example Compound 5, (S)-ethyl 2-(2-(3,6-diaminohexanoyl)-1-methylhydrazinyl)acetate], the “read-through activity / read-through efficiency (FIG. 1-3, in words)” value is recorded as “remarkably high read-through efficiency in comparison even to negamycin”. Regarding `CC(C)C[C@H](N)C(=O)N[C@@H](CCCN)CC(=O)NN(C)CC(=O)O` [Example Compound 7, 2-(2-((S)-6-amino-3-((S)-2-amino-4-methylpentanamide)hexanoyl)-1-methylhydrazinyl)acetic acid], the “read-through activity / read-through efficiency (FIG. 1-3, in words)” value was “remarkably high read-through efficiency in comparison even to negamycin”.

Still in this assay, the particulars now being: same method as Example 16; luciferase activity divided by β-galactosidase activity; 48 hours incubation; concentration for these values not given.
On to `CN(CC(=O)O)NC(=O)C[C@H](CCCN)NC(=O)[C@@H](N)Cc1ccccc1` [compound 14], for which the “Read-through Activity” value came to 2.13 ± 0.08.

For the compound `CCOC(=O)N(CC(=O)O)NC(=O)C[C@@H](N)CCCN` [compound 15], the “Read-through Activity” value was 1.92 ± 0.21.

Take `CC(C)[C@H](N)C(=O)N[C@@H](CCCN)CC(=O)NN(C)CC(=O)O` [compound 16]: the “Read-through Activity” value is 1.87 ± 0.29. For `CN(CC(=O)O)NC(=O)C[C@H](CCCN)NC(=O)CN` [compound 17], the “Read-through Activity” value was 2.10 ± 0.90. Still for that read-out and setting: then `CC(C)C[C@@H](N)C(=O)N[C@@H](CCCN)CC(=O)NN(C)CC(=O)O` [compound 18], with 1.30 ± 0.09; and `CN(CC(=O)O)NC(=O)C[C@H](CCCN)NC(=O)[C@@H](N)Cc1ccccc1` [compound 19], with 3.25 ± 0.07; and `CN(CC(=O)OCc1ccccc1Br)NC(=O)C[C@@H](N)CCN` [compound 20], with 7.07 ± 0.45.

Consider `CN(CC(=O)OCc1ccc(Br)cc1)NC(=O)C[C@@H](N)CCN` [compound 22], for which the “Read-through Activity” value is given as 5.18 ± 0.04. As to `CC(C)C[C@@H](N)C(=O)N[C@@H](CCCN)CC(=O)NN(C)CC(=O)O` [compound 23], the “Read-through Activity” value is 5.65 ± 0.09. Consider `CN(CC(=O)OCc1ccccc1)NC(=O)C[C@@H](N)CCN` [compound 24], for which the “Read-through Activity” value is reported as 3.89 ± 0.16.

`CN(CC(=O)OCc1ccccc1Br)NC(=O)C[C@@H](N)CCN` [compound 25]: the “Read-through Activity” value is 1.26 ± 0.07. As to `CCCNCC[C@H](N)CC(=O)NN(C)CC(=O)O` [compound 26], the “Read-through Activity” value was 1.44 ± 0.04.

Regarding `CCCCCNCC[C@H](N)CC(=O)NN(C)CC(=O)O` [compound 27], the “Read-through Activity” value is recorded as 1.64 ± 0.12. In the case of `CN(CC(=O)O)NC(=O)C[C@@H](N)CCNCc1ccccc1` [compound 28], the “Read-through Activity” value amounted to 1.40 ± 0.04. Same read-out and setting: then `CN(CC(=O)O)NC(=O)C[C@@H](N)CCNC(=O)CN` [compound 29], with 2.84 ± 0.06; and `CN(CC(=O)O)NC(=O)C[C@@H](N)CCNS(C)(=O)=O` [compound 32], with 1.24 ± 0.09; and `CN(CC(=O)O)NC(=O)C[C@@H](N)CCNCc1ccccc1` [compound 33], with 2.34 ± 0.11. Turning to `CN(CC(=O)O)NC(=O)C[C@@H](N)CCNC(=O)CN` [compound 34], the “Read-through Activity” value was determined as 2.00 ± 0.13.

Consider `CC(C)[C@H](N)C(=O)N[C@@H](CCN)CC(=O)NN(C)CC(=O)O` [compound 35], for which the “Read-through Activity” value worked out at 3.09 ± 0.62.

In the case of `C[C@H](N)C(=O)N[C@@H](CCN)CC(=O)NN(C)CC(=O)O` [compound 36], the “Read-through Activity” value is 1.92 ± 0.40. The same measure, in the same setting: the value for `CN(CC(=O)O)NC(=O)C[C@H](CCN)NC(=O)CN` [compound 37] was 2.78 ± 0.67. Still for that read-out and setting: the value for `CC[C@H](C)[C@H](N)C(=O)N[C@@H](CCN)CC(=O)NN(C)CC(=O)O` [compound 38] was 1.75 ± 0.19; that for `CN(CC(=O)O)NC(=O)C[C@H](CCN)NC(=O)[C@@H](N)Cc1ccc(O)cc1` [compound 39] was 1.63 ± 0.14. Same read-out and setting: the value for `CN(CC(=O)O)NC(=O)C[C@H](CCN)NC(=O)[C@@H](N)CCN` [compound 40] was 1.50 ± 0.05; that for `C[C@H](N)C(=O)N[C@@H](CCN)CC(=O)NN(C)CC(=O)O` [compound 41] was 1.57 ± 0.05; that for `CN(CC(=O)O)NC(=O)C[C@H](CCN)NC(=O)[C@@H](N)CCCCN` [compound 42] was 2.14 ± 0.18.

`CC[C@H](C)[C@H](N)C(=O)N[C@@H](CCN)CC(=O)NN(C)CC(=O)O` [compound 43]: the “Read-through Activity” value is recorded as 2.20 ± 0.05. As to `CN(CC(=O)O)NC(=O)C[C@H](CCN)NC(=O)[C@@H](N)CC(=O)O` [compound 44], the “Read-through Activity” value amounted to 1.58 ± 0.05. On to `CN(CC(=O)O)NC(=O)C[C@H](CCN)NC(=O)[C@@H](N)CCN` [compound 45], for which the “Read-through Activity” value stood at 1.65 ± 0.18.

Consider `CN(CC(=O)O)NC(=O)C[C@H](CCN)NC(=O)[C@@H](N)CCCN` [compound 46], for which the “Read-through Activity” value is given as 1.60 ± 0.13. `CN(CC(=O)O)NC(=O)C[C@H](N)C[C@@H](O)CN` [negamycin, methylhydrazinoacetic acid-linked δ-hydroxy-β-lysine, reference compound]: the “Read-through Activity” value is 1.53±0.04.

For a further assay, the system named is transgenic mice with luciferase gene and β-galactosidase gene as reporter genes. The experiment in a line: In vivo read-through activity in reporter transgenic mice (rectus femoris and gastrosoleus muscle). To be noted: subcutaneous, every 24 hours for seven consecutive days; muscle excised on the eighth day. The method, then: Transgenic mice were produced by introducing a luciferase gene and […] gene as reporter genes by the method described in International Publication WO2008/004610 pamphlet.
A physiological saline solution of example compound 2 synthesized in Example 1 was administered subcutaneously to the abdomen of the transgenic mice produced every 24 hours for seven consecutive days. On the eighth day, the rectus femoris and the gastrosoleus muscle of the mice were excised. After mincing by ophthalmological scissors, three times the wet weight of Reporter Lysis Buffer (Promega, US) was added, and the tissue was disrupted by Physcotron (Niti-on Co., Ltd.). After freezing overnight and thawing, the supernatant obtained by centrifugation was introduced into a 96-well plate, and the β-galactosidase activity was measured by a Beta-Glo Assay System (Promega, US) and the luciferase activity was measured by a Bright-Glo Assay System (Promega, US). A luminometer (ATTO) was used in measurement. The luciferase activity value was divided by the […] activity value, and the value multiplied by 10^4 was taken as the read-through efficiency.
For `CN(CC(=O)O)NC(=O)C[C@@H](N)CCCN` [Example Compound 2, (S)-2-(2-(3,6-diaminohexanoyl)-1-methylhydrazinyl)acetic acid], the “read-through activity in vivo (FIG. 4, in words)” value was “high read-through activity even in comparison to gentamicin and 5-epi-negamycin”.

The next assay relates to premature stop codon. The experiment in a line: Read-through activity stated in the description, test not specified. To be noted: statement of the inventors' finding, no test named.
As to `CC(C)C[C@H](N)C(=O)N[C@@H](CC(=O)CN)CC(=O)NN(C)CC(=O)O` [3-N-leucyl-3-epi-5-dehydronegamycin], the “read-through activity (in words)” value is given as “potent read-through activity”.

Turning to `CN(CC(=O)O)NC(=O)CC(N)CC(O)CN` (stereo not drawn) [5-epi-negamycin], the “read-through activity (in words)” value is “has read-through activity”.

Tested on in another assay: not given
Test: not given
To be noted: prior knowledge; cited from earlier work.
In the case of `CN(CC(=O)O)NC(=O)CC(N)CCCN` (stereo not drawn) [3-Epi-5-dehydroxynegamycin], the “antimicrobial activity (in words)” value was “weak antimicrobial activity”. Turning to `CC(C)C[C@H](N)C(=O)N[C@@H](CC(=O)CN)CC(=O)NN(C)CC(=O)O` [3-N-leucyl-3-epi-5-dehydronegamycin], the “antimicrobial activity (in words)” value is reported as “no antimicrobial activity”. Regarding `CN(CC(=O)O)NC(=O)C[C@H](N)C[C@@H](O)CN` [negamycin, methylhydrazinoacetic acid-linked δ-hydroxy-β-lysine, reference compound], the “antimicrobial activity (in words)” value is “high antimicrobial activity”.

The values above are taken from patent US9371274B2, “Compound having read-through activity” (The University of Tokyo, priority 2011, dated 2016).
